Legend:
[1] = molecular target: T1, CK1α (Homo sapiens, UniProt P48729+Q96SW2); assay: HiBiT degradation assay, CK1α, Procedure A; assay type: cell-based; details: six hours incubation
T1 construct: CSNK1A1-HiBit KI HEK293(LgBit) Cells; host or cells: HEK293(LgBit) knock-in cells
In short: (§1)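 10-pt dose response, 10–0.005 μM, 0.1% DMSO; cells 1×10^6/ml in DMEM/10% FBS, 6 h, 37° C; HiBiT lytic detection, luminescence; DC50 + Ymin by 4-parameter fit.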

[2] = molecular target: GSPT1 (Homo sapiens, UniProt P15170+Q96SW2); assay: HiBiT degradation assay, GSPT1, Procedure A; assay type: cell-based; design: HiBit-GSPT1 KI HEK293(LgBit) Cells; host or cells: HEK293(LgBit) knock-in cells; details: six hours incubation
Chain of GSPT1 (P15170 whole entry): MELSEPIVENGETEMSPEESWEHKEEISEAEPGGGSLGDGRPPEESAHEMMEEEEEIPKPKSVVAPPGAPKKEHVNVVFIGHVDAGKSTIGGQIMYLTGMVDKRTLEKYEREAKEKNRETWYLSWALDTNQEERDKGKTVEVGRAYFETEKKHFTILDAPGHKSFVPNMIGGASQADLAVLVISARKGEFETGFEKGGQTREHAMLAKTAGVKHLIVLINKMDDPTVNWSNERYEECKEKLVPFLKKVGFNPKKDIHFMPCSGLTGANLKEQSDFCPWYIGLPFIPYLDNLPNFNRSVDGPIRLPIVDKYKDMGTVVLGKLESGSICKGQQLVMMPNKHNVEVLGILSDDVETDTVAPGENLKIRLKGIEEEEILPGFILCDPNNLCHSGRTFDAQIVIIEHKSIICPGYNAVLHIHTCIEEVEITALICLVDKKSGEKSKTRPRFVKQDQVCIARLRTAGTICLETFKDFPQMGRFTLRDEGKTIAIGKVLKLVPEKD
Chain of GSPT1 (Q96SW2 whole entry): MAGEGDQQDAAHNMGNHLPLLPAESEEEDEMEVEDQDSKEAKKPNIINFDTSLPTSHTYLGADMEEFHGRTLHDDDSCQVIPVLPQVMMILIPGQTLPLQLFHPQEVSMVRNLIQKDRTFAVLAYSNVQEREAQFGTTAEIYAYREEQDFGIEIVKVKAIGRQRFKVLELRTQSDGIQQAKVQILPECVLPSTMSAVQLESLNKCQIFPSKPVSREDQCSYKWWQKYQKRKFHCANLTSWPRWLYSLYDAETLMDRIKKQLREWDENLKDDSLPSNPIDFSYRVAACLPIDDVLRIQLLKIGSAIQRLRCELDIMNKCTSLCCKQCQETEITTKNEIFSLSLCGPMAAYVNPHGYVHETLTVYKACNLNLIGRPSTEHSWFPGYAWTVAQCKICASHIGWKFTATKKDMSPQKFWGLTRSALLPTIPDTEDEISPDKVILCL
Chain of GSPT1 (Q16531 whole entry partner): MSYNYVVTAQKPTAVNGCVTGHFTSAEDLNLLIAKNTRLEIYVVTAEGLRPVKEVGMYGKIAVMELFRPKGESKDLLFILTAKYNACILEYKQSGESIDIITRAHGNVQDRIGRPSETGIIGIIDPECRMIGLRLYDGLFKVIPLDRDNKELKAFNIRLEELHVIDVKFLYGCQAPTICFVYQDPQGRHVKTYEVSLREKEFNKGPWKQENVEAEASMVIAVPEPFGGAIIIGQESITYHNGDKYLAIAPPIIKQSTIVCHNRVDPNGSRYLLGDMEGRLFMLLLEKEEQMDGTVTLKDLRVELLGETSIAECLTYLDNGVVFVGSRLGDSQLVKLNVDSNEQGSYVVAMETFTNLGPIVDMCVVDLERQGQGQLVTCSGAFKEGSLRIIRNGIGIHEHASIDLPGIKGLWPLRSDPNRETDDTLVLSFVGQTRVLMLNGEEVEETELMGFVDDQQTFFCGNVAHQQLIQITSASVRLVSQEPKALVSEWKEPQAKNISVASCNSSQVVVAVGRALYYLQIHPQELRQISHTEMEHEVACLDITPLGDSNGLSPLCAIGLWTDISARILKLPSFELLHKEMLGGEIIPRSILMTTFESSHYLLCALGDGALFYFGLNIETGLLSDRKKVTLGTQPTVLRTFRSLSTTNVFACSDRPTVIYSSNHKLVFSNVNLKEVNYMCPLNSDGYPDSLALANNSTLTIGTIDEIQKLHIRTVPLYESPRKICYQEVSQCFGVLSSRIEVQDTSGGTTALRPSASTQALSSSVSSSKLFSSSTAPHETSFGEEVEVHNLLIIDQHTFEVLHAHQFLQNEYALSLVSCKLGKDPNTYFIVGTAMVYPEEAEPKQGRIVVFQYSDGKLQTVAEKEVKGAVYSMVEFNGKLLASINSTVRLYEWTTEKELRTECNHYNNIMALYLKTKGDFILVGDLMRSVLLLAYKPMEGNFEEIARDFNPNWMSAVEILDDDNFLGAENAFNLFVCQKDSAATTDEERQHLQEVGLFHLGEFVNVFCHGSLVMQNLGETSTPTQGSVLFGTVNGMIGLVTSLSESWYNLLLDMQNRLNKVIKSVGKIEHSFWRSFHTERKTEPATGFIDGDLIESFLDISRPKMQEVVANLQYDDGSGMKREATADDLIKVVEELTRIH
In short: as §1

T1 sequence (P48729 whole entry): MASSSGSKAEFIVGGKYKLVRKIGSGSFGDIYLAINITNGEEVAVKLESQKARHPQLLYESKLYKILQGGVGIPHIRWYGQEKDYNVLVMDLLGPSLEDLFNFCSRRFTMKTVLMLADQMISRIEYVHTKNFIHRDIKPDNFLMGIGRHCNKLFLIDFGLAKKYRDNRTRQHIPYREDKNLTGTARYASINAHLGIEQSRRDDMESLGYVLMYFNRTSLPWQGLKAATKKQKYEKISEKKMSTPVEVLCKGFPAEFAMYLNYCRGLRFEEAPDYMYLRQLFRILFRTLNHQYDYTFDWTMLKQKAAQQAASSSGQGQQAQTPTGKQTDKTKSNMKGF
T1 sequence (Q96SW2 whole entry): as the sequence (Q96SW2 whole entry) above
T1 sequence (Q16531 whole entry partner): as the sequence (Q16531 whole entry partner) above

| CK1α Ymin [1] | DC50 [1] | DC50 [2] | GSPT1 Ymin [2] | Compound |
| --- | --- | --- | --- | --- |
| E (E = >25-75% remaining) | < 25 nM | ≥ 25 nM | F (F = >75-100% remaining) | Cn1ncc(-c2ccc3c(c2)CN(C2CCC(=O)NC2=O)C3=O)c1-c1cccc(F)c1 (stereo not drawn) [Example 135] |
| D (D = >10- 25% remaining) | < 25 nM | ≥ 25 nM | F (F = >75-100% remaining) | Cn1ncc(-c2ccc3c(c2)CN(C2CCC(=O)NC2=O)C3=O)c1-c1ccc2ccccc2c1 (stereo not drawn) [Example 136] |
| E (E = >25-75% remaining) | < 25 nM | < 25 nM | F (F = >75-100% remaining) | COc1ccc(C)cc1-c1c(-c2ccc3c(c2)CN(C2CCC(=O)NC2=O)C3=O)cnn1C (stereo not drawn) [Example 137] |
| E (E = >25-75% remaining) | ≥ 25 nM | < 25 nM | F (F = >75-100% remaining) | Cn1ncc(-c2ccc3c(c2)CN(C2CCC(=O)NC2=O)C3=O)c1-c1cccc(C(N)=O)c1 (stereo not drawn) [Example 138] |
| E (E = >25-75% remaining) | ≥ 25 nM | < 25 nM | F (F = >75-100% remaining) | Cn1ncc(-c2ccc3c(c2)CN(C2CCC(=O)NC2=O)C3=O)c1-c1cc(F)cc(F)c1 (stereo not drawn) [Example 139] |
| E (E = >25-75% remaining) | ≥ 25 nM | < 25 nM | E (E = >25-75% remaining) | CN(C)C(=O)c1cccc(-c2c(-c3ccc4c(c3)CN(C3CCC(=O)NC3=O)C4=O)cnn2C)c1 (stereo not drawn) [Example 140] |
| E (E = >25-75% remaining) | < 25 nM | ≥ 25 nM | F (F = >75-100% remaining) | COCc1ccc(-c2c(-c3ccc4c(c3)CN(C3CCC(=O)NC3=O)C4=O)cnn2C)cc1 (stereo not drawn) [Example 141] |
| D (D = >10- 25% remaining) | < 25 nM | ≥ 25 nM | F (F = >75-100% remaining) | Cn1ncc(-c2ccc3c(c2)CN(C2CCC(=O)NC2=O)C3=O)c1-c1ccc(O)cc1 (stereo not drawn) [Example 142] |
| D (D = >10- 25% remaining) | < 25 nM | ≥ 25 nM | F (F = >75-100% remaining) | COc1ccc(-c2c(-c3ccc4c(c3)CN(C3CCC(=O)NC3=O)C4=O)cnn2C)c(C)c1 (stereo not drawn) [Example 143] |
| E (E = >25-75% remaining) | < 25 nM | ≥ 25 nM | F (F = >75-100% remaining) | Cn1ncc(-c2ccc3c(c2)CN(C2CCC(=O)NC2=O)C3=O)c1-c1ccc(-c2ccccc2)cc1 (stereo not drawn) [Example 144] |
| C (C = 0-10% remaining) | < 25 nM | < 25 nM | F (F = >75-100% remaining) | Cn1ncc(-c2ccc3c(c2)CN(C2CCC(=O)NC2=O)C3=O)c1-c1ccccc1-c1ccccc1 (stereo not drawn) [Example 145] |
| D (D = >10- 25% remaining) | < 25 nM | ≥ 25 nM | E (E = >25-75% remaining) | COc1ccc(-c2c(-c3ccc4c(c3)CN(C3CCC(=O)NC3=O)C4=O)cnn2C)cc1Cl (stereo not drawn) [Example 146] |
| C (C = 0-10% remaining) | < 25 nM | ≥ 25 nM | F (F = >75-100% remaining) | Cn1ncc(-c2ccc3c(c2)CN(C2CCC(=O)NC2=O)C3=O)c1-c1cccc(N)c1 (stereo not drawn) [Example 147] |
| E (E = >25-75% remaining) | < 25 nM | < 25 nM | F (F = >75-100% remaining) | Cn1ncc(-c2ccc3c(c2)CN(C2CCC(=O)NC2=O)C3=O)c1-c1ccc(Cl)cc1Cl (stereo not drawn) [Example 148] |
| D (D = >10- 25% remaining) | < 25 nM | < 25 nM | F (F = >75-100% remaining) | COc1ccc2cc(-c3c(-c4ccc5c(c4)CN(C4CCC(=O)NC4=O)C5=O)cnn3C)ccc2c1 (stereo not drawn) [Example 149] |
| D (D = >10- 25% remaining) | < 25 nM | ≥ 25 nM | F (F = >75-100% remaining) | Cn1ncc(-c2ccc3c(c2)CN(C2CCC(=O)NC2=O)C3=O)c1-c1ccc(-n2cccn2)cc1 (stereo not drawn) [Example 150] |
| E (E = >25-75% remaining) | < 25 nM | ≥ 25 nM | F (F = >75-100% remaining) | Cc1ccc(-c2c(-c3ccc4c(c3)CN(C3CCC(=O)NC3=O)C4=O)cnn2C)cc1F (stereo not drawn) [Example 151] |
| E (E = >25-75% remaining) | ≥ 25 nM | ≥ 25 nM | F (F = >75-100% remaining) | Cn1ncc(-c2ccc3c(c2)CN(C2CCC(=O)NC2=O)C3=O)c1-c1ccccc1C#N (stereo not drawn) [Example 152] |
